Strand notation (5' to 3'): a small letter for the sugar, then the base; units joined by * are phosphorothioate-linked, units joined directly phosphodiester-linked; [ ] holds rarer units or linkages, { } end groups; capitals alone tell only the bases. e = 2'-O-(2-methoxyethyl) (MOE); k = constrained ethyl (cEt); [5mC] = 5-methylcytosine; d = 2'-deoxy (DNA)
Tests used:
Assay type in all cases: cell-based
human PKK mRNA [1] = assay: Antisense inhibition of human PKK mRNA in HepaRG cells, 3,000 nM (Example 1); conditions: relative to untreated control cells
Experimental: Antisense oligonucleotides were designed targeting a PKK nucleic acid and were tested for their effects on PKK mRNA in vitro. HepaRG™ cells, which are terminally differentiated hepatic cells derived from a human hepatic progenitor cell line and retain many characteristics of primary human hepatocytes (Lubberstedt M. et al., J. Pharmacol. Toxicol. Methods 2011 63: 59-68), were used in the screen.
The chimeric antisense oligonucleotides in the tables below were designed as 5-10-5 MOE gapmers. The gapmers are 20 nucleosides in length, wherein the central gap segment comprises of ten 2′-deoxynucleosides and is flanked by wing segments on the 5′ direction and the 3′ direction comprising five nucleosides each. Each nucleoside in the 5′ wing segment and each nucleoside in the 3′ wing segment has a 2′-O-methoxyethyl modification. The internucleoside linkages throughout each gapmer are phosphorothioate linkages. All cytosine residues throughout each gapmer are 5-methylcytosines. “Start site” indicates the 5′-most nucleoside to which the gapmer is targeted in the human gene sequence. “Stop site” indicates the 3′-most nucleoside to which the gapmer is targeted in the human gene sequence.
Cultured HepaRG™ cells at a density of 20,000 cells per well were transfected using electroporation with 3,000 nM antisense oligonucleotide. After a treatment period of approximately 24 hours, RNA was isolated from the cells and PKK mRNA levels were measured by quantitative real-time PCR. Human primer probe set RTS3454 (forward sequence […], designated herein as SEQ ID NO: 20; reverse sequence […], designated herein as SEQ ID NO: 21; probe sequence […], designated herein as SEQ ID NO: 22) was used to measure mRNA levels. PKK mRNA levels were adjusted according to total RNA content, as measured by RIBOGREEN®. The antisense oligonucleotides were tested in a series of experiments that had similar culture conditions. Results are presented as percent inhibition of PKK, relative to untreated control cells.

human PKK mRNA [2] = assay: Dose-dependent antisense inhibition of human PKK in HepaRG cells, 0.11-3.00 uM (Example 6); conditions: for IC50: 0.11-3.00 μM; for percent inhibition of PKK mRNA, 0.11 μM / percent inhibition of PKK mRNA, 0.33 μM / percent inhibition of PKK mRNA, 1.00 μM / percent inhibition of PKK mRNA, 3.00 μM: electroporation, approx. 16 hours, relative to untreated control cells
Method in brief: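 Antisense oligonucleotides were tested over 0.11–3.00 μM, delivered by electroporation, with readout after roughly 16 h. Human PKK transcript was measured by real-time PCR (set RTS3454) and adjusted to RIBOGREEN total RNA, giving half-maximal inhibitory concentrations.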

human PKK mRNA [3] = assay: Antisense inhibition of human PKK mRNA in HepaRG cells, 1,000 nM, MOE/deoxy/cEt oligonucleotides (Example 3)
Method in brief: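 Readout is percent PKK mRNA reduction against untreated controls, by real-time PCR (RTS3454) adjusted for total RNA via RIBOGREEN. Oligonucleotides, phosphorothioate gapmers of 16 nucleosides with cEt, MOE and deoxy sugars, were delivered at 1,000 nM by electroporation to 20,000 HepaRG cells/well for roughly 24 h.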

[4] = Table 4, HepaRG cells, electroporation with 3,000 nM antisense oligonucleotide, approx. 24 hours, PKK mRNA by RT-PCR (RTS3454)
[5] = Table 2, PKK mRNA, HepaRG cells, 3,000 nM, electroporation, ~24 h
[6] = Table 1, PKK mRNA, HepaRG cells, 3,000 nM, electroporation, ~24 h
[7] = Table 3, HepaRG cells, electroporation with 3,000 nM antisense oligonucleotide, approx. 24 hours, PKK mRNA by RT-PCR (RTS3454)
[8] = Table 20, HepaRG cells, electroporation with 1,000 nM antisense oligonucleotide, approximately 24 hours, PKK mRNA by RT-PCR (RTS3454), relative to untreated control cells
[9] = Table 22 experiment, HepaRG cells, electroporation with 1,000 nM antisense oligonucleotide, approx. 24 hours, PKK mRNA by RT-PCR (RTS3454), relative to untreated control cells
[10] = Table 21 experiment, HepaRG cells, electroporation with 1,000 nM antisense oligonucleotide, approx. 24 hours, PKK mRNA by RT-PCR (RTS3454), relative to untreated control cells

Row | Substance | percent inhibition of PKK mRNA, 0.11 μM (human PKK mRNA [2]) [%] | percent inhibition of PKK mRNA, 0.33 μM (human PKK mRNA [2]) [%] | percent inhibition of PKK mRNA, 1.00 μM (human PKK mRNA [2]) [%] | percent inhibition of PKK mRNA, 3.00 μM (human PKK mRNA [2]) [%] | further results
1 | 531207 (e[5mC]*e[5mC]*eA*e[5mC]*eT*dT*dA*dT*dT*dT*dG*dA*dT*dG*dA*e[5mC]*e[5mC]*eA*e[5mC]*eA; antisense) [compound 531207] | – | – | – | – | % inhibition (human PKK mRNA [1]; [4]): 64%
2 | 531052 (antisense eA*eG*eA*e[5mC]*e[5mC]*dA*dT*d[5mC]*d[5mC]*dG*dT*dT*dG*dG*dG*eT*eT*eA*eT*eT) [compound 531052] | – | – | – | – | % inhibition (human PKK mRNA [1]; [5]): 60%
3 | 531227 (eT*eA*e[5mC]*e[5mC]*eA*dA*dT*dT*dT*d[5mC]*dT*dG*dA*dA*dA*eG*eG*eG*e[5mC]*eA; antisense) [compound 531227] | – | – | – | – | % inhibition (human PKK mRNA [1]; [4]): 72%
4 | 530945 (antisense eA*eT*e[5mC]*e[5mC]*e[5mC]*d[5mC]*dA*d[5mC]*d[5mC]*dT*d[5mC]*dT*dG*dA*dA*eG*eA*eA*eG*eG) [compound 530945] | – | – | – | – | % inhibition (human PKK mRNA [1]; [6]): 0%
5 | 531084 (eA*eT*eA*eG*eG*dG*dA*d[5mC]*dA*d[5mC]*dA*dA*d[5mC]*d[5mC]*dA*eA*eG*eG*eA*eA; antisense) [compound 531084] | – | – | – | – | % inhibition (human PKK mRNA [1]; [7]): 25%
6 | 531151 (antisense eT*e[5mC]*eA*e[5mC]*e[5mC]*dA*d[5mC]*d[5mC]*dA*dT*dT*dT*dT*dT*d[5mC]*eA*e[5mC]*eA*eT*eG) [compound 531151] | – | – | – | – | % inhibition (human PKK mRNA [1]; [7]): 44%
7 | 531027 (antisense eA*eA*eA*eG*eG*dA*dG*d[5mC]*d[5mC]*dT*dG*dG*dA*dG*dT*eT*eT*eT*eA*eT) [compound 531027] | – | – | – | – | % inhibition (human PKK mRNA [1]; [5]): 0%
8 | 531029 (antisense eA*eG*eT*eG*eT*dA*dA*dT*dT*d[5mC]*dA*dA*dA*dG*dG*eA*eG*e[5mC]*e[5mC]*eT) [compound 531029] | – | – | – | – | % inhibition (human PKK mRNA [1]; [5]): 59%
9 | 531143 (antisense e[5mC]*eA*eT*eG*eG*dA*dA*dA*dA*dA*dT*dT*dA*dA*dG*e[5mC]*eT*e[5mC]*eA*eT) [compound 531143] | – | – | – | – | % inhibition (human PKK mRNA [1]; [7]): 0%
10 | 531135 (antisense eA*eA*eT*eG*eT*dT*dG*dT*dG*dA*dA*dT*dA*d[5mC]*d[5mC]*eA*eT*e[5mC]*e[5mC]*e[5mC]) [compound 531135] | – | – | – | – | % inhibition (human PKK mRNA [1]; [7]): 16%
11 | 531113 (antisense eA*eA*e[5mC]*eA*eG*dA*d[5mC]*dA*d[5mC]*dA*dT*dT*dA*dT*dT*eT*eA*eT*eA*eT) [compound 531113] | – | – | – | – | % inhibition (human PKK mRNA [1]; [7]): 0%
12 | 530954 (antisense eT*eG*eG*eA*eA*dG*dA*dA*dA*dA*d[5mC]*dT*dG*dA*dA*eT*eA*eG*e[5mC]*eA) [compound 530954] | – | – | – | – | % inhibition (human PKK mRNA [1]; [6]): 47%
13 | 530956 (antisense eA*e[5mC]*eA*e[5mC]*eT*dA*dT*d[5mC]*dT*dT*dT*d[5mC]*dA*dA*dG*eA*eA*eG*e[5mC]*eA) [compound 530956] | – | – | – | – | % inhibition (human PKK mRNA [1]; [6]): 57%
14 | 531181 (antisense eG*eG*eT*eT*eG*dA*dG*dG*dG*dA*d[5mC]*dA*dG*dA*d[5mC]*eA*e[5mC]*eA*eG*eG) [compound 531181] | – | – | – | – | % inhibition (human PKK mRNA [1]; [4]): 36%
15 | 547870 (antisense e[5mC]*eT*kA*dA*d[5mC]*d[5mC]*dT*dT*dA*dG*dA*d[5mC]*dA*k[5mC]*kA*eT) [compound 547870] | 0 | 44 | 80 | 97 | IC50 (human PKK mRNA [2]): 600 nM; % inhibition (human PKK mRNA [3]; [8]): 89%; % inhibition (human PKK mRNA [3]; [9]): 83%
16 | 548047 (eG*eA*kT*dA*dT*d[5mC]*dA*dT*dG*dA*dT*dT*d[5mC]*k[5mC]*k[5mC]*eT; antisense) [compound 548047] | 50 | 62 | 76 | 95 | % inhibition (human PKK mRNA [3]; HepaRG cells, electroporation with 1,000 nM antisense oligonucleotide, approximately 24 hours, primer probe set RTS3454, relative to untreated control cells, experiment of Table 24): 83%
17 | 548147 (e[5mC]*eG*kT*d[5mC]*d[5mC]*dT*dT*dA*dG*dG*dA*dT*dG*k[5mC]*kA*eA; antisense) [compound 548147] | 59 | 94 | 80 | – | % inhibition (human PKK mRNA [3]; Table 19, HepaRG cells, electroporation with 1,000 nM antisense oligonucleotide, approximately 24 hours, PKK mRNA by RT-PCR (RTS3454), relative to untreated control cells): 81%
18 | 547835 (e[5mC]*e[5mC]*kA*dG*dA*dA*dA*d[5mC]*dT*dG*d[5mC]*dA*d[5mC]*k[5mC]*kT*eG; antisense) [compound 547835] | 44 | 27 | 53 | 79 | IC50 (human PKK mRNA [2]): 900 nM; % inhibition (human PKK mRNA [3]; [10]): 81%
19 | 548180 (eT*e[5mC]*kA*dT*dG*dG*dA*dG*dA*dT*d[5mC]*dT*d[5mC]*kA*kG*eT; antisense) [compound 548180] | 11 | 59 | 71 | 88 | IC50 (human PKK mRNA [2]): 400 nM; % inhibition (human PKK mRNA [3]; HepaRG cells, electroporation with 1,000 nM antisense oligonucleotide, approx. 24 hours, PKK mRNA by RT-PCR (RTS3454), relative to untreated control cells, Table 25 experiment): 79%
20 | 547849 (antisense eA*eA*kT*dG*dT*d[5mC]*dT*d[5mC]*dG*dA*dT*dG*dG*k[5mC]*kA*eA) [compound 547849] | 36 | 52 | 67 | – | IC50 (human PKK mRNA [2]): 300 nM; % inhibition (human PKK mRNA [3]; [8]): 79%; % inhibition (human PKK mRNA [3]; [9]): 90%
21 | 548338 (antisense eA*eT*kG*dA*dA*dA*d[5mC]*dT*dG*dT*dG*dG*d[5mC]*kT*k[5mC]*eG) [compound 548338] | 41 | 58 | 79 | 95 | IC50 (human PKK mRNA [2]): 200 nM; % inhibition (human PKK mRNA [3]; Table 27, HepaRG cells, 1,000 nM antisense oligonucleotide, human PKK mRNA): 80%
22 | 547979 (antisense eG*eT*k[5mC]*dT*d[5mC]*dT*dT*dG*dG*d[5mC]*dA*dA*dA*k[5mC]*kA*eT) [compound 547979] | 56 | 58 | 94 | 97 | % inhibition (human PKK mRNA [3]; HepaRG cells, electroporation with 1,000 nM antisense oligonucleotide, approximately 24 hours, primer probe set RTS3454, relative to untreated control cells, experiment of Table 23): 77%
23 | 547807 (eG*e[5mC]*kA*dG*dT*dA*dT*dT*dG*dG*dG*d[5mC]*dA*kT*kT*eT; antisense) [compound 547807] | 26 | 71 | 61 | 94 | IC50 (human PKK mRNA [2]): 400 nM; % inhibition (human PKK mRNA [3]; [10]): 75%
